US9198891B2, “Method of treating cancer by inhibition of protein kinase-like endoplasmic reticulum protein kinase” (New York University, priority 2010, dated 2015)

System: Mouse PERK
Test: In vitro kinase inhibition assay: PERK-mediated eIF2α phosphorylation
Assay type: biochemical
Settings: for Activity (ability to inhibit PERK-mediated eIF2α phosphorylation in vitro): compounds selected in the initial VLS; for relative inhibition of PERK among the six active compounds: initial VLS screening; for inhibition of PERK-dependent eIF2α phosphorylation in vitro: tested at 10 μM (FIG. 1C)
Experimental: Mouse PERK proteins comprising the cytoplasmic portion of the molecule with the delta loop deleted were pre-incubated with varying concentrations of compound at room temperature for 10 minutes. This construct thus contains close to a minimal catalytic domain of PERK, closely similar but not identical to SEQ ID NO: 1. The kinase reaction was initiated by the addition of 2 μM ATP, 0.2 μM γ-[^32P]ATP, 10 μM eIF2α and allowed to proceed at room temperature for 15 minutes (Marciniak et al., “Activation-Dependent Substrate Recruitment by the Eukaryotic Translation Initiation Factor 2 Kinase PERK,” J Cell Biol 172: 201-9 (2006), which is hereby incorporated by reference in its entirety). The phosphorylated eIF2α was then separated on 14% SDS-PAGE and visualized by autoradiography. To determine the selectivity of the compounds, their ability to inhibit protein kinase PKA was also evaluated. Briefly, PKA was pre-incubated with the compound at 40 μM, the highest concentration used in the PERK assay, for 10 minutes. Then, 10 μM ATP, 0.2 μM γ-[^32P]ATP and 10 μM GSTag were added, followed by the incubation at room temperature for 15 minutes.

Row | Structure (SMILES) | Activity (ability to inhibit PERK-mediated eIF2α phosphorylation in vitro) | concentration range over which PERK inhibition is displayed | relative inhibition of PERK among the six active compounds | inhibition of PERK-dependent eIF2α phosphorylation in vitro
1 | ON=C1CC2C3CC(C12)C1/C(=N\O)CC31 (stereo not drawn) [Compound A1] | inactive |  |  | 
2 | O=C(CNC(=O)c1ccco1)N/N=C/c1ccc(O)cc1 [Compound A2] | inactive |  |  | 
3 | Cc1ccccc1N1C(=O)CC(SC(=N)N/N=C/c2ccc(O)c(O)c2)C1=O (stereo not drawn) [Compound A3] | inactive |  |  | 
4 | COc1cc(/C=N\N(C)c2nc(-c3ccccc3)cc(-c3ccc(Br)cc3)n2)ccc1O [Compound A4] | active | narrow range of concentration | relatively stronger inhibition of PERK | active

Second part, the compound after the results:

Row | Activity (ability to inhibit PERK-mediated eIF2α phosphorylation in vitro) | concentration range over which PERK inhibition is displayed | relative inhibition of PERK among the six active compounds | inhibition of PERK-dependent eIF2α phosphorylation in vitro | Structure (SMILES)
5 | active |  |  |  | CCC(Oc1ccccc1)C(=O)Nc1sc2c(c1C(N)=O)CCC(C(C)(C)C)C2 (stereo not drawn) [Compound B2]
6 | active |  |  |  | O=C(Nc1cccc(Oc2ccc3c(c2)C(=O)N(c2ccc(O)cc2)C3=O)c1)c1ccco1 [Compound B6]
7 | active |  |  |  | Cc1ccc(OCCOCCOc2ccccc2/C=C2\SC(=N)NC2=O)cc1 [Compound C1]
8 | inactive |  |  |  | O=C(Nc1ccc(O)cc1C(=O)O)c1ccc(C(=O)Nc2ccc(O)cc2C(=O)O)cc1 [Compound C3]
9 | inactive |  |  |  | NS(=O)(=O)c1ccc(CNC(=O)/C=C/c2ccc3c(c2)OCO3)cc1 [Compound C6]
10 | active | 1 to 25 µM | relatively stronger inhibition of PERK | active | O=C(COc1ccccc1)NC(=S)Nc1ccc(O)c(-c2nc3ccccc3s2)c1 [Compound D1]
11 | inactive |  |  |  | CCC(Sc1nnc(COc2ccccc2C)n1C)C(=O)Nc1ccc(C(C)=O)cc1 (stereo not drawn) [Compound D4]
12 | active |  |  |  | CCOC(=O)c1c(NC(=O)CSc2nc(N)cc(=O)[nH]2)sc2c1CCC2 [Compound E1]
